Source: US12583870B2, “Azaheteroaryl compound and application thereof” (SHANGHAI BLUERAY BIOPHARMA CO., LTD., priority 2019, dated 2026)

Columns and labels:
[1] = biological target: T1, EED protein (His6-tagged full-length) binding to H3K27me3 polypeptide (Homo sapiens, UniProt O75530); assay: AlphaScreen evaluation of blocking the binding of EED to H3K27Me3; conditions: EED 60 nM, biotinylated H3K27me3 75 nM, 30 minutes incubation
T1 construct: His6-tagged full-length EED protein (441 amino acids)
T1 sequence (O75530 whole entry): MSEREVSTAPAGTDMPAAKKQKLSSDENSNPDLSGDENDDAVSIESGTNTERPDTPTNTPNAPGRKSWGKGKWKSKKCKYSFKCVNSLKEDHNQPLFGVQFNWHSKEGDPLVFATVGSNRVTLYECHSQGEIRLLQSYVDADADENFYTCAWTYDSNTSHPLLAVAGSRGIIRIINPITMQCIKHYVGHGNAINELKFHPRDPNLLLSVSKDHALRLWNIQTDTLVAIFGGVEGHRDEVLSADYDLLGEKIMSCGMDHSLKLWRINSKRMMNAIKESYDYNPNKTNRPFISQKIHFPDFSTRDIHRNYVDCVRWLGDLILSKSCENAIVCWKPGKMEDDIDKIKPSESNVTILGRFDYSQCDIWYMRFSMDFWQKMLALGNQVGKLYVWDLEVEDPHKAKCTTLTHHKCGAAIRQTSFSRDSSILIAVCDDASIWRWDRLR
Protocol: Firstly, compound solutions of different concentration gradients were prepared. Compound powder was dissolved in DMSO to prepare a mother liquor. 1.5 μl of the mother liquor of the compound was taken and added into 198.5 μl of a reaction buffer (25 mM HEPES (pH 8.0), 50 mM NaCl, 0.015% Tween 20, 0.5% BSA). The mixture was mixed uniformly. Then a 3-fold series dilution was carried out with the above-mentioned buffer containing 0.75% DMSO. 9 different test concentrations were provided for one same compound. 5 μL of compounds of different concentration gradients were taken and added into the ProxiPlate-384 Plus, White detection plate (PerkinElmer, 6008280) and two replicates in parallel were provided for each concentration gradient.
Secondly, a reaction for blocking the binding was carried out. The above-mentioned buffer was used to dilute His6-tagged full-length EED protein (441 amino acids) to 60 nM and biotinylated polypeptide fragment H3K27me3 (amino acids at positions 19-33) (Biotinylated-H3K27me3) to 75 nM. 5 μl of the polypeptide fragment at the concentration of 75 nM and 5 µl of the protein at the concentration of 60 nM were transferred to the detection wells containing the compound, respectively. The detection plate was sealed with the film and incubation was carried out at room temperature for 30 minutes.
Finally, the detection was carried out with the AlphaScreen method. Prior use, nickel chelate receptor beads and streptavidin donor beads (at the ratio of 1:1, Perkin Elmer, product number 6760619M) were mixed with the above-mentioned reaction buffer. Then 5 μl of the above-mentioned pre-mixed detection solution was added to each of the detection wells. The donor beads and receptor beads were both at a final concentration of 5 μg/mL. The detection plate was covered and sealed with tinfoil and placed in the dark at room temperature for 1 hour. The signal was read using the AlphaScreen detector on the Spectra max i3. AlphaScreen signals were standardlized based on the readings obtained from positive controls (maximum signal controls) and negative controls (minimum signal controls) to give the inhibition rates for compounds at different concentrations, and afterwards non-linear regression analysis was carried out using GraphPad Prism 5, inhibition curves were made based on the Dose-Response equation of Y=Bottom+(Top−Bottom)/(1+10^((Log IC50−X)*HillSlope)) and the IC50 values of each compound were obtained. […]

KARPAS-422 cells = assay: Cell proliferation analysis, KARPAS-422, 13 days, CellTiter-Glo; assay type: cell-based; conditions: Homo sapiens, 312 h
Outline: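 KARPAS-422 cells were treated with PRC2 inhibitors over 9 three-fold dilutions from 10 μM top (0.5% DMSO, duplicates) in RPMI-1640 with 15% FBS at 37 °C. Every 3–4 days cells were counted and reseeded at 1×10^4/well with fresh compound. Viability was read by CellTiter-Glo luminescence on day 13.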

[2] = tested on: trimethylation level of histone H3K27 in G401 cells; assay: ELISA (H3K27 trimethylation) analysis in G401 cells; assay type: cell-based; conditions: Homo sapiens, G-401, 72 hours, H3K27me3 standardized to H3
Outline: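 Cells exposed 72 h to 10-point 3-fold dilutions, top 10 μM, 0.5% final DMSO. Acid-extracted histones assayed by ELISA (ECL) for H3K27me3, normalized to total H3 and to DMSO control; IC50 from dose-response fit.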

With `CC(=O)c1c(C)nc2c(-c3cnc(NCc4c(F)ccc5c4CCO5)n4cnnc34)cc(F)cn12` [1-(6-fluoro-8-(5-(((5-fluoro-2,3-dihydrobenzofuran-4-yl)methyl)amino)-[1,2,4]triazolo[4,3-c]pyrimidin-8-yl)-2-methylimidazo[1,2-a]pyridin-3-yl)ethan-1-one] the IC50 [1] was 0.016 µM, the IC50 (KARPAS-422 cells) was 0.0011 µM and the IC50 [2] was 0.0015 µM.

Work on `CC(=O)c1c(C)nc2c(-c3cnc(NCc4c(F)ccc5c4CCO5)n4cnnc34)cccn12` [1-(8-(5-(((5-fluoro-2,3-dihydrobenzofuran-4-yl)methyl)amino)-[1,2,4]triazolo[4,3-c]pyrimidin-8-yl)-2-methylimidazo[1,2-a]pyridin-3-yl)ethan-1-one] yielded an IC50 [1] of 0.0048 µM, an IC50 (KARPAS-422 cells) of 0.0016 µM and an IC50 [2] of 0.0025 µM.

`Cc1ccc(-c2cnc(NCc3c(F)ccc4c3CCO4)n3cnnc23)c2ncc(CC(=O)N(C)C)n12` [2-(8-(5-(((5-fluoro-2,3-dihydrobenzofuran-4-yl)methyl)amino)-[1,2,4]triazolo[4,3-c]pyrimidin-8-yl)-5-methylimidazo[1,2-a]pyridin-3-yl)-N,N-dimethylacetamide] gave an IC50 [1] of 0.0114 µM, an IC50 (KARPAS-422 cells) of 0.0061 µM and an IC50 [2] of 0.0016 µM.

Compound `Cc1ccc(-c2cnc(NCc3c(F)ccc4c3CCO4)n3cnnc23)c2ncc(CC(N)=O)n12` [2-(8-(5-(((5-fluoro-2,3-dihydrobenzofuran-4-yl)methyl)amino)-[1,2,4]triazolo[4,3-c]pyrimidin-8-yl)-5-methylimidazo[1,2-a]pyridin-3-yl)acetamide] has an IC50 [1] of 0.0118 µM, an IC50 (KARPAS-422 cells) of 0.0032 µM and an IC50 [2] of 0.003 µM.

With `Cc1ccc(-c2cnc(NCc3c(F)ccc4c3CCO4)n3cnnc23)c2ncc(CC(=O)O)n12` [2-(8-(5-(((5-fluoro-2,3-dihydrobenzofuran-4-yl)methyl)amino)-[1,2,4]triazolo[4,3-c]pyrimidin-8-yl)-5-methylimidazo[1,2-a]pyridin-3-yl)acetic acid] the IC50 [1] was 0.0054 µM, the IC50 (KARPAS-422 cells) was 0.0047 µM and the IC50 [2] was 0.004 µM.

Work on `Cc1ccc(-c2cnc(NCc3c(F)ccc4c3CCO4)n3cnnc23)c2ncc(CCO)n12` [2-(8-(5-(((5-fluoro-2,3-dihydrobenzofuran-4-yl)methyl)amino)-[1,2,4]triazolo[4,3-c]pyrimidin-8-yl)-5-methylimidazo[1,2-a]pyridin-3-yl)ethan-1-ol] yielded an IC50 [1] of 0.0099 µM, an IC50 (KARPAS-422 cells) of 0.0024 µM and an IC50 [2] of 0.0016 µM.

`CC(=O)OCCc1cnc2c(-c3cnc(NCc4c(F)ccc5c4CCO5)n4cnnc34)ccc(C)n12` [2-(8-(5-(((5-fluoro-2,3-dihydrobenzofuran-4-yl)methyl)amino)-[1,2,4]triazolo[4,3-c]pyrimidin-8-yl)-5-methylimidazo[1,2-a]pyridin-3-yl)ethyl acetate] was tested, and the IC50 [1] was 0.0062 µM, the IC50 (KARPAS-422 cells) was 0.0017 µM and the IC50 [2] was 0.001 µM.

For `CC1=C(F)S(=O)(=O)c2ccc(-c3cnc(NCc4c(F)ccc5c4[C@H]4C[C@H]4O5)n4cnnc34)cc21` [2-fluoro-5-(5-((((1aR,6bR)-5-fluoro-1a,6b-dihydro-1H-cyclopropa[b]benzofuran-6-yl)methyl)amino)-[1,2,4]triazolo[4,3-c]pyrimidin-8-yl)-3-methylbenzo[b]thiophene 1,1-dioxide], the IC50 [1] was 0.0041 µM, the IC50 (KARPAS-422 cells) was 0.032 µM and the IC50 [2] was 0.022 µM.

Work on `O=S1(=O)C(F)=Cc2cc(-c3cnc(NCc4c(F)ccc5c4[C@H]4C[C@H]4O5)n4cnnc34)ccc21` [2-fluoro-5-(5-((((1aR,6bR)-5-fluoro-1a,6b-dihydro-1H-cyclopropa[b]benzofuran-6-yl)methyl)amino)-[1,2,4]triazolo[4,3-c]pyrimidin-8-yl)benzo[b]thiophene 1,1-dioxide] yielded an IC50 [1] of 0.566 µM, an IC50 (KARPAS-422 cells) of 0.079 µM and an IC50 [2] of 0.16 µM.

`NCCC1=CS(=O)(=O)c2ccc(-c3cnc(NCc4c(F)ccc5c4[C@@H]4C[C@@H]4O5)n4cnnc34)cc21` [3-(2-aminoethyl)-5-(5-((((1aS,6bS)-5-fluoro-1a,6b-dihydro-1H-cyclopropa[b]benzofuran-6-yl)methyl)amino)-[1,2,4]triazolo[4,3-c]pyrimidin-8-yl)benzo[b]thiophene 1,1-dioxide] gave an IC50 [1] of 0.0054 µM, an IC50 (KARPAS-422 cells) of 0.033 µM and an IC50 [2] of 0.075 µM.

`CC1=C(F)c2cc(-c3cnc(NCc4c(F)ccc5c4CCO5)n4cnnc34)ccc2S1(=O)=O` [3-fluoro-5-(5-(((5-fluoro-2,3-dihydrobenzofuran-4-yl)methyl)amino)-[1,2,4]triazolo[4,3-c]pyrimidin-8-yl)-2-methylbenzo[b]thiophene 1,1-dioxide] gave an IC50 [1] of 0.0026 µM, an IC50 (KARPAS-422 cells) of 0.0049 µM and an IC50 [2] of 0.0073 µM.

In the case of `CC1=C(F)c2cc(-c3cnc(NCc4c(F)ccc5c4[C@H]4C[C@H]4O5)n4cnnc34)ccc2S1(=O)=O` [3-fluoro-5-(5-((((1aR,6bR)-5-fluoro-1a,6b-dihydro-1H-cyclopropa[b]benzofuran-6-yl)methyl)amino)-[1,2,4]triazolo[4,3-c]pyrimidin-8-yl)-2-methylbenzo[b]thiophene 1,1-dioxide], the IC50 [1] is reported as 0.0042 µM, the IC50 (KARPAS-422 cells) is reported as 0.0055 µM and the IC50 [2] is reported as 0.0058 µM.

With `O=S1(=O)C=C(F)c2cc(-c3cnc(NCc4c(F)ccc5c4[C@H]4C[C@H]4O5)n4cnnc34)ccc21` [3-fluoro-5-(5-((((1aR,6bR)-5-fluoro-1a,6b-dihydro-1H-cyclopropa[b]benzofuran-6-yl)methyl)amino)-[1,2,4]triazolo[4,3-c]pyrimidin-8-yl)benzo[b]thiophene 1,1-dioxide] the IC50 [1] was 0.123 µM, the IC50 (KARPAS-422 cells) was 0.097 µM and the IC50 [2] was 0.078 µM.

Work on `CC1=Cc2c(-c3cnc(NCc4c(F)ccc5c4CCO5)n4cnnc34)cccc2S1(=O)=O` [4-(5-(((5-fluoro-2,3-dihydrobenzofuran-4-yl)methyl)amino)-[1,2,4]triazolo[4,3-c]pyrimidin-8-yl)-2-methylbenzo[b]thiophene 1,1-dioxide] yielded an IC50 [1] of 0.0122 µM, an IC50 (KARPAS-422 cells) of 0.0042 µM and an IC50 [2] of 0.0036 µM.

`O=S1(=O)C=Cc2c(-c3cnc(NCc4c(F)ccc5c4CCO5)n4cnnc34)cccc21` [4-(5-(((5-fluoro-2,3-dihydrobenzofuran-4-yl)methyl)amino)-[1,2,4]triazolo[4,3-c]pyrimidin-8-yl)benzo[b]thiophene 1,1-dioxide] gave an IC50 [1] of 0.01 µM, an IC50 (KARPAS-422 cells) of 0.013 µM and an IC50 [2] of 0.021 µM.

Work on `O=S1(=O)C=Cc2c(-c3cnc(NCc4c(F)ccc5c4[C@H]4C[C@H]4O5)n4cnnc34)cccc21` [4-(5-((((1aR,6bR)-5-fluoro-1a,6b-dihydro-1H-cyclopropa[b]benzofuran-6-yl)methyl)amino)-[1,2,4]triazolo[4,3-c]pyrimidin-8-yl)benzo[b]thiophene 1,1-dioxide] yielded an IC50 [1] of 0.0044 µM, an IC50 (KARPAS-422 cells) of 0.0115 µM and an IC50 [2] of 0.0092 µM.

With `Cc1cc2c(cc1-c1cnc(NCc3c(F)ccc4c3CCO4)n3cnnc13)C=CS2(=O)=O` [5-(5-(((5-fluoro-2,3-dihydrobenzofuran-4-yl)methyl)amino)-[1,2,4]triazolo[4,3-c]pyrimidin-8-yl)-6-methylbenzo[b]thiophene 1,1-dioxide] the IC50 [1] was 0.0041 µM, the IC50 (KARPAS-422 cells) was 0.0005 µM and the IC50 [2] was 0.0009 µM.

For `O=S1(=O)C=Cc2cc(-c3cnc(NCc4c(F)ccc5c4CCO5)n4cnnc34)ccc21` [5-(5-(((5-fluoro-2,3-dihydrobenzofuran-4-yl)methyl)amino)-[1,2,4]triazolo[4,3-c]pyrimidin-8-yl)benzo[b]thiophene 1,1-dioxide], the IC50 [1] was 0.0049 µM, the IC50 (KARPAS-422 cells) was 0.0007 µM and the IC50 [2] was 0.0021 µM.

With `O=S1(=O)C=c2ccc(-c3cnc(NCc4c(F)ccc5c4CCO5)n4cnnc34)cc2=C1` [5-(5-(((5-fluoro-2,3-dihydrobenzofuran-4-yl)methyl)amino)-[1,2,4]triazolo[4,3-c]pyrimidin-8-yl)benzo[c]thiophene 2,2-dioxide] the IC50 [1] was 0.0049 µM, the IC50 (KARPAS-422 cells) was 0.0004 µM and the IC50 [2] was 0.0003 µM.

`Fc1ccc2c(c1CNc1ncc(-c3cccc4cccnc34)c3nncn13)CCO2` [N-((5-fluoro-2,3-dihydrobenzofuran-4-yl)methyl)-8-(quinolin-8-yl)-[1,2,4]triazolo[4,3-c]pyrimidin-5-amine] was tested, and the IC50 [1] was 0.0051 µM and the IC50 [2] was 0.0029 µM.
